Test results from publication PMC5116089, “Sulfheme formation during homocysteine S-oxygenation by catalase in cancers and neurodegenerative diseases” (Nature Communications, 2016).
Where two headings read alike, the source gives them in different places.

Biological target: T1, Bovine liver catalase (Bos taurus, UniProt P00432)
T1 construct: Bovine liver catalase was also purchased from Sigma-Aldrich; purchased Sigma-Aldrich; host or cells: bovine liver
T1 sequence (P00432 2-527 limits assumed): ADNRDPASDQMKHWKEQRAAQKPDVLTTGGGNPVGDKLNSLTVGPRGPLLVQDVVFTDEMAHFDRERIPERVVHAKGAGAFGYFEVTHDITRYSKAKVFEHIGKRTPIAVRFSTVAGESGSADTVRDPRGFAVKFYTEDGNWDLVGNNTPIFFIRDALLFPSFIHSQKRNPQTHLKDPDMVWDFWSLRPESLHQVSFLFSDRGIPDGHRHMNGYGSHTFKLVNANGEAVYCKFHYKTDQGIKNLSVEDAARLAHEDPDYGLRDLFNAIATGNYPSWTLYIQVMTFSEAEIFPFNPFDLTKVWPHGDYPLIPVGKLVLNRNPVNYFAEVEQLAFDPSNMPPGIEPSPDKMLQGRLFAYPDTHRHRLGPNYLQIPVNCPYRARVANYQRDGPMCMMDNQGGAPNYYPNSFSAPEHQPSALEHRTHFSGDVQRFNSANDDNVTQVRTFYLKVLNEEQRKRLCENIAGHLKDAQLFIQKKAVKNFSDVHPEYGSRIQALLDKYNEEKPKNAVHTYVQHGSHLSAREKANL
Assay: Catalase activity (H2O2 disappearance at 240 nm) as a function of thiol concentration
Assay type: biochemical
Conditions: read-out: relative IC50 (CAT activity)
Procedure: CAT activity was measured on an Uvikon 941 spectrophotometer equipped with a temperature controlled water bath (±1 °C) by following the disappearance of H2O2 at 240 nm over 30–120 s at 25 °C. Catalase activity was calculated based on the rate of decomposition of hydrogen peroxide, which is proportional to the reduction of the absorbance at 240 nm. Experiments were carried out in a 3 ml quartz cuvette containing 11.7 mM H2O2 in 50 mM KPi, pH 7.4±1 mM DTPA and the reaction was initiated by adding 0.3–0.6 pmoles of CAT. The effect of biological thiols on the activity of CAT under physiological conditions was determined from a solution of CAT (30–60 nM) preincubated at 25 °C for at least 120 min as a function thiol concentration (0–40 mM for HCys and Cys, 0–100 mM for GSH) in 50 mM KPi, pH 7.4, 1 mM DTPA. Control experiments (biological thiols alone) were also performed in parallel. In each case, 10 μl of the reaction mixture (biological thiols±CAT) was added to the cuvette containing the H2O2 solution to initiate the reaction. Similarly, the effect of biological thiols on the activity of CAT under pathological conditions was determined from a solution of CAT (30–60 nM) containing a 2.124±0.386 molar excess of iron that was preincubated with various concentrations of thiols (0–1 mM) for at least 120 min at 25 °C in 50 mM KP at pH 7.4. The relative half inhibitory concentration (IC50) values were obtained by plotting the relative activity of CAT (A, in per cent) as a function of the concentration of thiol-compounds (RSH) and by fitting the data with the following four parameter logistic equation: A=Amin+(Amax−Amin)/(1+([RSH]/IC50)^n), where Amax is the maximal activity of CAT (constrained at 100%), Amin is the minimum activity achieved at saturating concentration of RSH and n is the Hillslope that characterizes the slope of the curve at its midpoint. The inactivation rate (kinact, min^−1) was extracted from the time course of the inactivation of CAT bioactivity using a fixed concentration of HCys. Accordingly, a solution of CAT (3.5–5 μM) was incubated with 2 mM L-HCys in 50 mM KPi, pH 7.4, 1 mM DTPA. Aliquots (10 μl) were taken at intervals (0–480 min), diluted 1:50 in 50 mM KPi, pH 7.4, 1 mM DTPA and assayed for CAT activity as described above. Similar experiments were performed in the presence of DMPO, 5,5-dimethyl-1,3-cyclohexanedione (dimedone) or SOD at a final concentration of 100 mM, 4 mM or 40 U, respectively. kinact values were obtained by plotting the relative activity of CAT (A, in per cent) as a function of the incubation time and the data were fitted with an exponential decay function: A=A0+ΔA × e^−kinact × t, with A0 and ΔA (A0+ΔA=100%) the residual activity and the percentage of CAT inhibition when t→∞, respectively. The effect of NaSH on the consumption of H2O2 in cell lysates was determined from a solution of cell lysates (0.5–3 mg ml^−1) incubated on ice with various concentrations of NaSH (0–200 μM). The disappearance of H2O2 was then followed at 240 nm for 2–5 min at 25 °C after the addition of 20–25 μl of the reaction mixture in a 3 ml cuvette containing 11.7 mM H2O2 in 50 mM KPi, pH 7.4. The relative half inhibitory concentration (IC50) values for NaSH were obtained by plotting the relative rate of disappearance of H2O2 (ΔA240 nm/min) as a function of the concentration of NaSH and by fitting the data with an hyperbolic decay equation. All the experiments were performed at least in triplicate.

[1] = +1 mM DTPA (physiological conditions), 50 mM phosphate buffer pH 7.4, 25 °C, n=3±s.d.
[2] = iron 55–145 nM, −DTPA (pathological conditions), 50 mM phosphate buffer pH 7.4, 25 °C, n=3±s.d.

## NC(CCS)C(=O)O (stereo not shown) [HCys, homocysteine]
[1]
  IC50: 1440 ± 370 µM
[2]
  IC50: 37 ± 3 µM

## N[C@@H](CS)C(=O)O [Cys, cysteine]
[1]
  IC50: 590 ± 70 µM
Iron 55–145 nM, + 0.2 mM DTPA
  IC50: 69 ± 27 µM
Iron 55–145 nM, + 1 mM DTPA
  IC50: 594 ± 67 µM
Iron 55–145 nM, + DMPO
  IC50: > 700 µM
Iron 55–145 nM, + SOD
  IC50: 66 ± 16 µM
[2]
  IC50: 3.5 ± 0.3 µM

## N[C@@H](CCC(=O)N[C@@H](CS)C(=O)NCC(=O)O)C(=O)O [GSH, glutathione]
[1]
  IC50: 21200 ± 8500 µM
[2]
  IC50: 55 ± 14 µM
